Patent US20250262299A1, “DOSING FOR TREATMENT WITH ANTI-FCRH5/ANTI-CD3 BISPECIFIC ANTIBODIES” (Genentech, Inc., priority 2022, published 2025)

What was measured:
R/R MM = assay: Study GO39775 / cevostamab monotherapy clinical studies in patients with R/R MM; format: in vivo, human
Excerpt: As of November 2021, two studies are ongoing to confirm the safety and efficacy of cevostamab in this patient population. As such, combination with lenalidomide is expected to deepen and prolong response in patients in remission on the following basis: • FcRH5 is a cell-surface antigen whose expression is restricted to cells of the B linage, including plasma cells. […] Rationale for Cevostamab Dose
The dosing schedule has been modified from a 21-day cycle to a 28-day cycle to accommodate lenalidomide dosing and to ease patient treatment burden. […] A lower target dose of 90 mg Q2W will be the starting point of dose escalation towards 132 mg. These doses have been selected based on the full body of evidence available across cevostamab studies, considering PD, PK, safety, and efficacy data.

[1] = Compatibility testing in extension sets; format: physicochemical; conditions: IV infusion extension sets
Excerpt: Cevostamab will be administered as a fixed dose independent of body weight. Cevostamab will be administered to patients by IV infusion using standard IV bags where applicable. […] The drug product will be delivered by IV bag infusion, with a final cevostamab volume determined by the dose.

Fc (Fcγ) receptors = conditions: N297G non-glycosylated antibody; cited from earlier work
[2] = system: human MM cell lines and primary human MM plasma cells; conditions: cells with a wide range of FcRH5 expression levels, including minimal expression; cited from earlier work
MM = conditions: lenalidomide maintenance, active vs. control; cited from earlier work
[3] = Study GO39775, 0.3/3.6/160 mg, patients with R/R MM
[4] = Study GO39775, preliminary findings
[5] = cevostamab monotherapy, patients with R/R MM

| Compound | safety of target dose (R/R MM; Study GO39775, 160 mg every three weeks (Q3W)) | induction of response with double step-up dosing (R/R MM; [3]) | safety of double step-up dosing (R/R MM; [3]) | clinical response in patients with the lowest FcRH5 expression (R/R MM; [4]) | objective response in relation to baseline FcRH5 expression (R/R MM; [4]) | efficacy (R/R MM; [5]) | safety profile (R/R MM; [5]) | stability in extension sets [1] | binding to Fc (Fcγ) receptors (Fc (Fcγ) receptors) | cell killing [2] | overall survival (OS) (MM) | progression-free survival (PFS) (MM) |
| --- | --- | --- | --- | --- | --- | --- | --- | --- | --- | --- | --- | --- |
| cevostamab: Fc-engineered, humanized, full-length non-glycosylated IgG1 kappa T-cell-dependent bispecific antibody (TDB) that binds FcRH5 and CD3 | found to be safe | effective at inducing a response | safe | Clinical response has been observed | able to achieve an objective response to cevostamab treatment regardless of baseline FcRH5 expression | shown efficacy | acceptable safety profile | stable in extension sets | minimal binding | broadly active in cell killing | – | – |
| Nc1cccc2c1CN(C1CCC(=O)NC1=O)C2=O (stereo not drawn) [lenalidomide] | – | – | – | – | – | – | – | – | – | – | statistically significant increase | statistically significant increase |
